Measured values from PubChem BioAssay (NCI).
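1) Cells in 96-well plates. 2) Compound, 48 h, 5 concentrations. 3) Linear interpolation between surrounding doses. 4) Unreached endpoint = highest concentration. TGI is the concentration that stops growth completely.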

What was measured:
Experiment in all cases: NCI anticancer screen, dose series, 48 h
UACC-257 melanoma = test system: UACC-257 melanoma
TK-10 renal = test system: TK-10 renal
M14 melanoma = test system: M14 melanoma
SK-MEL-2 melanoma = test system: SK-MEL-2 melanoma
HCT-15 colon = test system: HCT-15 colon
MCF7 breast = test system: MCF7 breast
SF-268 CNS = test system: SF-268 CNS
SK-MEL-28 melanoma = test system: SK-MEL-28 melanoma
CAKI-1 renal = test system: CAKI-1 renal
SF-539 CNS = test system: SF-539 CNS
OVCAR-4 ovarian = test system: OVCAR-4 ovarian
RXF 393 renal = test system: RXF 393 renal
SK-OV-3 ovarian = test system: SK-OV-3 ovarian
EKVX NSCLC = test system: EKVX NSCLC
NCI-H23 lung = test system: NCI-H23 lung
NCI/ADR-RES ovarian = test system: NCI/ADR-RES ovarian
IGROV1 ovarian = test system: IGROV1 ovarian
UACC-62 melanoma = test system: UACC-62 melanoma
A498 renal = test system: A498 renal
A549 NSCLC = test system: A549 NSCLC
MDA-MB-435 = test system: MDA-MB-435
NCI-H226 lung = test system: NCI-H226 lung
SF-295 CNS = test system: SF-295 CNS
T-47D breast = test system: T-47D breast
786-0 renal = test system: 786-0 renal
SNB-19 CNS = test system: SNB-19 CNS
SR leukemia = test system: SR leukemia
SK-MEL-5 melanoma = test system: SK-MEL-5 melanoma
MOLT-4 leukemia = test system: MOLT-4 leukemia
PC-3 prostate = test system: PC-3 prostate
U251 CNS = test system: U251 CNS
NCI-H460 lung = test system: NCI-H460 lung
ACHN renal = test system: ACHN renal
MDA-N = test system: MDA-N
DU-145 prostate = test system: DU-145 prostate
HCT-116 colon = test system: HCT-116 colon
MALME-3M melanoma = test system: MALME-3M melanoma
HOP-92 NSCLC = test system: HOP-92 NSCLC
HT29 colon = test system: HT29 colon
SNB-75 CNS = test system: SNB-75 CNS
SN12C renal = test system: SN12C renal
SW-620 colon = test system: SW-620 colon
KM12 colon = test system: KM12 colon
COLO 205 colon = test system: COLO 205 colon
OVCAR-5 ovarian = test system: OVCAR-5 ovarian
HL-60(TB) leukemia = test system: HL-60(TB) leukemia
HS 578T breast = test system: HS 578T breast
CCRF-CEM leukemia = test system: CCRF-CEM leukemia
OVCAR-8 ovarian = test system: OVCAR-8 ovarian
NCI-H522 lung = test system: NCI-H522 lung
OVCAR-3 ovarian = test system: OVCAR-3 ovarian
RPMI-8226 leukemia = test system: RPMI-8226 leukemia
HOP-62 NSCLC = test system: HOP-62 NSCLC
UO-31 renal = test system: UO-31 renal
MDA-MB-231 breast = test system: MDA-MB-231 breast
K-562 leukemia = test system: K-562 leukemia
LOX IMVI melanoma = test system: LOX IMVI melanoma
BT-549 breast = test system: BT-549 breast

For `O=C1C[C@@H](Sc2ccccc2)C2(OCCO2)C2ON3CCCC[C@H]3[C@H]12` (some centres undefined), the TGI (UACC-257 melanoma) was 28.1 µM, the TGI (TK-10 renal) was 13 µM and the TGI (M14 melanoma) was 30.3 µM. The TGI (SK-MEL-2 melanoma) was 39.8 µM, the TGI (HCT-15 colon) was over 29.6 µM and the TGI (MCF7 breast) was 14.3 µM. The TGI (SF-268 CNS) was 23.3 µM, the TGI (SK-MEL-28 melanoma) was 41.6 µM and the TGI (CAKI-1 renal) was 21 µM. The TGI (SF-539 CNS) was 4.5 µM, the TGI (OVCAR-4 ovarian) was 21.8 µM and the TGI (RXF 393 renal) was 12.3 µM. It also gave a TGI (SK-OV-3 ovarian) of over 100 µM, a TGI (EKVX NSCLC) of 26.1 µM and a TGI (NCI-H23 lung) of 22.8 µM. The TGI (NCI/ADR-RES ovarian) was 18.9 µM, the TGI (IGROV1 ovarian) was 19.2 µM and the TGI (UACC-62 melanoma) was 18.5 µM. The TGI (A498 renal) was over 95.3 µM, the TGI (A549 NSCLC) was 31.4 µM and the TGI (MDA-MB-435) was 34.7 µM. For the same compound, the TGI (NCI-H226 lung) was 33.2 µM, the TGI (SF-295 CNS) was 38.4 µM and the TGI (T-47D breast) was 46.8 µM. The TGI (786-0 renal) was 12.7 µM, the TGI (SNB-19 CNS) was 32.1 µM and the TGI (SR leukemia) was 4.35 µM. It also gave a TGI (SK-MEL-5 melanoma) of 20.7 µM, a TGI (MOLT-4 leukemia) of 5.1 µM and a TGI (PC-3 prostate) of 24.2 µM. It also gave a TGI (U251 CNS) of over 39.5 µM, a TGI (NCI-H460 lung) of 28.8 µM and a TGI (ACHN renal) of 6.33 µM. For the same compound, the TGI (MDA-N) was 33.3 µM, the TGI (DU-145 prostate) was 24.5 µM and the TGI (HCT-116 colon) was 16.7 µM. It also gave a TGI (MALME-3M melanoma) of 22.9 µM, a TGI (HOP-92 NSCLC) of 19.2 µM and a TGI (HT29 colon) of 15.7 µM. The TGI (SNB-75 CNS) was 29.9 µM, the TGI (SN12C renal) was 14.8 µM and the TGI (SW-620 colon) was 14.4 µM. It also gave a TGI (KM12 colon) of 19.7 µM, a TGI (COLO 205 colon) of 27.1 µM and a TGI (OVCAR-5 ovarian) of 33.5 µM. The TGI (HL-60(TB) leukemia) was 4.9 µM, the TGI (HS 578T breast) was 31 µM and the TGI (CCRF-CEM leukemia) was 4.71 µM. The TGI (OVCAR-8 ovarian) was 13.9 µM, the TGI (NCI-H522 lung) was 6.93 µM and the TGI (OVCAR-3 ovarian) was 26.8 µM. The TGI (RPMI-8226 leukemia) was 12.5 µM, the TGI (HOP-62 NSCLC) was 33 µM and the TGI (UO-31 renal) was 17.3 µM. For the same compound, the TGI (MDA-MB-231 breast) was 25.9 µM, the TGI (K-562 leukemia) was 6.79 µM and the TGI (LOX IMVI melanoma) was 10.1 µM. For the same compound, the TGI (BT-549 breast) was 20.7 µM.

For `COC(=O)C(Cc1c[nH]c2ccccc12)NP(=O)(O)OCC1OC(n2ccc(N)nc2=O)C(O)C1O` (centres undefined), the TGI (UACC-257 melanoma) was over 100 µM, the TGI (TK-10 renal) was over 100 µM and the TGI (M14 melanoma) was over 100 µM. The TGI (HCT-15 colon) was over 100 µM, the TGI (MCF7 breast) was over 100 µM and the TGI (SF-268 CNS) was over 100 µM. For the same compound, the TGI (SK-MEL-28 melanoma) was over 100 µM, the TGI (CAKI-1 renal) was over 100 µM and the TGI (SF-539 CNS) was over 100 µM. For the same compound, the TGI (OVCAR-4 ovarian) was over 100 µM, the TGI (EKVX NSCLC) was over 100 µM and the TGI (NCI-H23 lung) was over 100 µM. For the same compound, the TGI (NCI/ADR-RES ovarian) was over 100 µM, the TGI (IGROV1 ovarian) was over 100 µM and the TGI (UACC-62 melanoma) was over 100 µM. It also gave a TGI (A498 renal) of over 100 µM, a TGI (A549 NSCLC) of over 100 µM and a TGI (MDA-MB-435) of over 100 µM. The TGI (NCI-H226 lung) was over 100 µM, the TGI (SF-295 CNS) was over 100 µM and the TGI (T-47D breast) was over 100 µM. It also gave a TGI (786-0 renal) of over 100 µM, a TGI (SNB-19 CNS) of over 100 µM and a TGI (SR leukemia) of over 100 µM. For the same compound, the TGI (SK-MEL-5 melanoma) was over 100 µM, the TGI (MOLT-4 leukemia) was over 100 µM and the TGI (PC-3 prostate) was over 100 µM. It also gave a TGI (U251 CNS) of over 100 µM, a TGI (NCI-H460 lung) of over 100 µM and a TGI (ACHN renal) of over 100 µM. It also gave a TGI (MDA-N) of over 100 µM, a TGI (DU-145 prostate) of over 100 µM and a TGI (HCT-116 colon) of over 100 µM. The TGI (MALME-3M melanoma) was over 100 µM, the TGI (HOP-92 NSCLC) was over 100 µM and the TGI (HT29 colon) was over 100 µM. For the same compound, the TGI (SNB-75 CNS) was over 100 µM, the TGI (SN12C renal) was over 100 µM and the TGI (SW-620 colon) was over 100 µM. It also gave a TGI (KM12 colon) of over 100 µM, a TGI (COLO 205 colon) of over 100 µM and a TGI (OVCAR-5 ovarian) of over 100 µM. For the same compound, the TGI (HL-60(TB) leukemia) was over 100 µM, the TGI (HS 578T breast) was over 100 µM and the TGI (CCRF-CEM leukemia) was over 100 µM. For the same compound, the TGI (OVCAR-8 ovarian) was over 100 µM, the TGI (NCI-H522 lung) was over 100 µM and the TGI (OVCAR-3 ovarian) was over 100 µM. It also gave a TGI (RPMI-8226 leukemia) of over 100 µM, a TGI (HOP-62 NSCLC) of over 100 µM and a TGI (UO-31 renal) of over 100 µM. The TGI (MDA-MB-231 breast) was over 100 µM, the TGI (K-562 leukemia) was over 100 µM and the TGI (LOX IMVI melanoma) was over 100 µM. It also gave a TGI (BT-549 breast) of over 100 µM.

`COc1cc2c(c(O)c1OC)C(=O)C1CCC(=O)N1C2c1cccc2ccccc12` (centres undefined) showed a TGI (UACC-257 melanoma) of over 100 µM, a TGI (M14 melanoma) of over 100 µM and a TGI (SK-MEL-2 melanoma) of over 100 µM. The TGI (HCT-15 colon) was over 100 µM, the TGI (MCF7 breast) was over 100 µM and the TGI (SF-268 CNS) was over 100 µM. For the same compound, the TGI (SK-MEL-28 melanoma) was over 100 µM, the TGI (CAKI-1 renal) was over 100 µM and the TGI (SF-539 CNS) was over 100 µM. For the same compound, the TGI (OVCAR-4 ovarian) was over 100 µM, the TGI (RXF 393 renal) was over 100 µM and the TGI (SK-OV-3 ovarian) was over 100 µM. For the same compound, the TGI (EKVX NSCLC) was over 100 µM, the TGI (NCI-H23 lung) was over 100 µM and the TGI (NCI/ADR-RES ovarian) was over 100 µM. For the same compound, the TGI (IGROV1 ovarian) was over 100 µM, the TGI (UACC-62 melanoma) was over 100 µM and the TGI (A498 renal) was over 100 µM. The TGI (A549 NSCLC) was over 100 µM, the TGI (MDA-MB-435) was over 100 µM and the TGI (NCI-H226 lung) was over 100 µM. The TGI (SF-295 CNS) was over 100 µM, the TGI (T-47D breast) was over 100 µM and the TGI (786-0 renal) was over 100 µM. The TGI (SNB-19 CNS) was over 100 µM, the TGI (SR leukemia) was over 100 µM and the TGI (SK-MEL-5 melanoma) was over 100 µM. It also gave a TGI (MOLT-4 leukemia) of 89.6 µM, a TGI (PC-3 prostate) of over 100 µM and a TGI (U251 CNS) of over 100 µM. The TGI (NCI-H460 lung) was over 100 µM, the TGI (ACHN renal) was over 100 µM and the TGI (MDA-N) was over 100 µM. The TGI (DU-145 prostate) was over 100 µM, the TGI (HCT-116 colon) was over 100 µM and the TGI (MALME-3M melanoma) was over 100 µM. It also gave a TGI (HOP-92 NSCLC) of 89.5 µM, a TGI (HT29 colon) of over 100 µM and a TGI (SNB-75 CNS) of over 100 µM. It also gave a TGI (SN12C renal) of over 100 µM, a TGI (SW-620 colon) of over 100 µM and a TGI (KM12 colon) of over 100 µM. It also gave a TGI (COLO 205 colon) of 32.8 µM, a TGI (OVCAR-5 ovarian) of over 100 µM and a TGI (HL-60(TB) leukemia) of 63.9 µM. For the same compound, the TGI (HS 578T breast) was over 100 µM, the TGI (CCRF-CEM leukemia) was 77 µM and the TGI (OVCAR-8 ovarian) was over 100 µM. It also gave a TGI (NCI-H522 lung) of over 100 µM, a TGI (OVCAR-3 ovarian) of over 100 µM and a TGI (RPMI-8226 leukemia) of 81.2 µM. For the same compound, the TGI (HOP-62 NSCLC) was over 100 µM, the TGI (UO-31 renal) was over 100 µM and the TGI (MDA-MB-231 breast) was over 100 µM. For the same compound, the TGI (K-562 leukemia) was 59.2 µM and the TGI (BT-549 breast) was over 100 µM.
